According to US20260356804A1, “SODIUM CHANNEL BLOCKING COMPOUNDS, DERIVATIVES THEREOF, AND METHODS OF THEIR USE” (LATIGO BIOTHERAPEUTICS, INC., priority 2022, published 2026):
Where a name gives a salt, the structure may show the parent alone. Read-outs that look alike come from different tables or passages of the source.

Molecular target: T1, human Nav1.8/b3 (Homo sapiens, UniProt Q9Y5Y9)
T1 construct: expressed in transfected cells; host or cells: CHO
Test: Compound Profiling Human NaV1.8/β3 Cell Line—SyncroPatch384PE Assay (automated patch clamp, stably transfected CHO cells)
Format: cell-based
Details: Nav1.8/b3 CHO cells

[1] = P1 (IC50, resting state block), P1 measurement, resting state block, holding potential −120 mV, second set of compounds
[2] = P2 (IC50, inactivated state block), P2 measurement, inactivated state block, inactivation step −35 mV 10 sec, second set of compounds
[3] = P1 (IC50, resting state block), P1 measurement, resting state block, holding potential −120 mV, third set of compounds
[4] = P2 (IC50, inactivated state block), P2 measurement, inactivated state block, inactivation step −35 mV 10 sec, third set of compounds
[5] = P1 (IC50, resting state block), P1 measurement, resting state block, holding potential −120 mV, fourth set of compounds
[6] = P2 (IC50, inactivated state block), P2 measurement, inactivated state block, inactivation step −35 mV 10 sec, fourth set of compounds
[7] = P1 (IC50, resting state block), P1 measurement, resting state block, holding potential −120 mV, first set of compounds
[8] = P2 (IC50, inactivated state block), P2 measurement, inactivated state block, inactivation step −35 mV 10 sec, first set of compounds

T1 sequence (Q9Y5Y9 whole entry): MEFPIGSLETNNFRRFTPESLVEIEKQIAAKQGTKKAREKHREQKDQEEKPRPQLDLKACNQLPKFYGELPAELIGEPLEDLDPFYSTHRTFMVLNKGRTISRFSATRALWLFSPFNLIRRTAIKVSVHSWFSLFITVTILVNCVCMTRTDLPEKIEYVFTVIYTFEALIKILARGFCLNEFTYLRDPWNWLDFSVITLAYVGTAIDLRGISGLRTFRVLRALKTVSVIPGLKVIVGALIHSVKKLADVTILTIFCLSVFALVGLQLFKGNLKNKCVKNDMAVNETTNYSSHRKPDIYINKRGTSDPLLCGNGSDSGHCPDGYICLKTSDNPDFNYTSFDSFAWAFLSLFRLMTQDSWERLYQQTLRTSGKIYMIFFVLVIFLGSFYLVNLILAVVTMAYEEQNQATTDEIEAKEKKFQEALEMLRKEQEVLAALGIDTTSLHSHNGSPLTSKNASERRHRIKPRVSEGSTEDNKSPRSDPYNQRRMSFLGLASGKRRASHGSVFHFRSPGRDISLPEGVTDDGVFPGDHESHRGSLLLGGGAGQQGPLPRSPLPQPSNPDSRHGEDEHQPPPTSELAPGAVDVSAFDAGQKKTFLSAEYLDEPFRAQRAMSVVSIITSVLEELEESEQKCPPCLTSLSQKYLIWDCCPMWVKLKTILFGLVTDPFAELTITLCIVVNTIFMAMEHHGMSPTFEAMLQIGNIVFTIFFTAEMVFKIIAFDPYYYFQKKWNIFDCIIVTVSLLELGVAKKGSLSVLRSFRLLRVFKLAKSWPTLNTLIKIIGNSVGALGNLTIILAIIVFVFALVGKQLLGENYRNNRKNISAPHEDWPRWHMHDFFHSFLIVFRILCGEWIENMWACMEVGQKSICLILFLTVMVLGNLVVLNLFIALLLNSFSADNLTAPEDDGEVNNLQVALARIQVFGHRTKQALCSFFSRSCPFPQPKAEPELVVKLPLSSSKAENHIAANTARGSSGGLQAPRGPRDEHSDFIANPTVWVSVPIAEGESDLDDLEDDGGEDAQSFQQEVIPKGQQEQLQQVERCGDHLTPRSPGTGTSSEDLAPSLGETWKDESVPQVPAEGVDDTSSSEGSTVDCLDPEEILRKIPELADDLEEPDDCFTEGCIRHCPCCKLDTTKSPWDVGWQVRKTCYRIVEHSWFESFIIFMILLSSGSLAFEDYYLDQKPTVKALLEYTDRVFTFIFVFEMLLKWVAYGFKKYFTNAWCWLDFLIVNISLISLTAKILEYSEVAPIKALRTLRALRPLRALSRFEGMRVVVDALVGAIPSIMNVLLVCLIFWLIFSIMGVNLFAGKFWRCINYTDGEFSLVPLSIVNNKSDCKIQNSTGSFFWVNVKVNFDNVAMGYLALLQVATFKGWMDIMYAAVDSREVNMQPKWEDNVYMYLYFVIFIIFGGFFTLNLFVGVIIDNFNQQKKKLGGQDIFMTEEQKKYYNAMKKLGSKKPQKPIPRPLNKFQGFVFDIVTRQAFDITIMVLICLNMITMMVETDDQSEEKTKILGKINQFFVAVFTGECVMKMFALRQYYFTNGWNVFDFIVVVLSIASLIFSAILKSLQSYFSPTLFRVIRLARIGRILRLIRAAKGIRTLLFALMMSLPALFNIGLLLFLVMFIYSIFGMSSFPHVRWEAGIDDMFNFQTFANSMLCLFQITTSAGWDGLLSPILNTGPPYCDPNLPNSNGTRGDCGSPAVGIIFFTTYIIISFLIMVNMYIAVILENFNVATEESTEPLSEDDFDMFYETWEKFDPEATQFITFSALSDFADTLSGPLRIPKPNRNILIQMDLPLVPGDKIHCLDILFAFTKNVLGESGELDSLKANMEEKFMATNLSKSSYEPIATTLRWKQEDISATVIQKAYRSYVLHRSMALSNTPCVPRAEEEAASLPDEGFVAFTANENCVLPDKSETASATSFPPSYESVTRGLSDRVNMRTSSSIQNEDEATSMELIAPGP
T1 sequence (Q9NY72 23-215 partner): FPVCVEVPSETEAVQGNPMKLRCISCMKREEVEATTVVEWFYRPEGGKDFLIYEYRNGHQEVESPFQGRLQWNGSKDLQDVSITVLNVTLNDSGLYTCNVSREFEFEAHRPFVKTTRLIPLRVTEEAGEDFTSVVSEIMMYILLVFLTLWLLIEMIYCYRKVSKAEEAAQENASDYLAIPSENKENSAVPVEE

Structure (SMILES)	IC50 [1]	IC50 [2]	IC50 [5]	IC50 [6]	further results
Cc1nc(F)ccc1Oc1cc(C(F)(F)F)c(Cl)cc1C(=O)Nc1cccc([S@@](C)(=O)=NC(=O)[C@@H](C)N)c1 [Example 5B, N-(3-((R)—N-(D-alanyl)-S-methylsulfonimidoyl)phenyl)-5-chloro-2-((6-fluoro-2-methylpyridin-3-yl)oxy)-4-(trifluoromethyl)benzamide]	< 5 nM	< 5 nM	–	–	–
COc1cc(C#N)ccc1Oc1ncc(C(F)(F)F)c(C)c1C(=O)Nc1cccc([S@](C)(=N)=O)c1 [Example 5C, (R)-2-(4-cyano-2-methoxyphenoxy)-4-methyl-N-(3-(S-methylsulfonimidoyl)phenyl)-5-(trifluoromethyl)nicotinamide]	–	–	–	–	IC50 [3]: < 5 nM; IC50 [4]: < 5 nM
Cc1nc(F)ccc1Oc1ncc(C(F)(F)F)c(C)c1C(=O)Nc1cccc([S@@](C)(=O)=NC(=O)C2(N)CC2)c1 [Example 5D, (R)—N-(3-(N-(1-aminocyclopropane-1-carbonyl)-S-methylsulfonimidoyl)phenyl)-2-((6-fluoro-2-methylpyridin-3-yl)oxy)-4-methyl-5-(trifluoromethyl)nicotinamide]	–	–	< 5 nM	< 5 nM	–
Cc1nc(F)ccc1Oc1cc(C(F)(F)F)c(Cl)cc1C(=O)Nc1cccc([S@@](C)(=O)=NC(=O)C2(N)CCC2)c1 [Example 6B, (R)—N-(3-(N-(1-aminocyclobutane-1-carbonyl)-S-methylsulfonimidoyl)phenyl)-5-chloro-2-((6-fluoro-2-methylpyridin-3-yl)oxy)-4-(trifluoromethyl)benzamide]	< 5 nM	< 5 nM	–	–	–
Cc1nc(F)ccc1Oc1ncc(-c2ccc(F)c(F)c2)c(C)c1C(=O)Nc1cccc([S@](C)(=N)=O)c1 [Example 6C, (R)-5-(3,4-difluorophenyl)-2-((6-fluoro-2-methylpyridin-3-yl)oxy)-4-methyl-N-(3-(S-methylsulfonimidoyl)phenyl)nicotinamide]	–	–	–	–	IC50 [3]: < 5 nM; IC50 [4]: < 5 nM
Cc1nc(F)ccc1Oc1ncc(C(F)(F)F)c(C)c1C(=O)Nc1cccc([S@@](C)(=O)=NC(=O)C2COC2)c1 [Example 6D, (R)-2-((6-fluoro-2-methylpyridin-3-yl)oxy)-4-methyl-N-(3-(S-methyl-N-(oxetane-3-carbonyl)sulfonimidoyl)phenyl)-5-(trifluoromethyl)nicotinamide]	–	–	< 5 nM	< 5 nM	–
Cc1nc(F)ccc1Oc1ccc(-c2cnn(C)c2)c(C)c1C(=O)Nc1cccc([S@](C)(=N)=O)c1 [Example 7A, (R)-6-((6-fluoro-2-methylpyridin-3-yl)oxy)-2-methyl-3-(1-methyl-1H-pyrazol-4-yl)-N-(3-(S-methylsulfonimidoyl)phenyl)benzamide]	–	–	–	–	IC50 [7]: > 200 nM; IC50 [8]: > 200 nM
Cc1nc(F)ccc1Oc1cc(C(F)(F)F)c(Cl)cc1C(=O)Nc1cccc([S@@](C)(=O)=NC(=O)C(C)(C)N)c1 [Example 7B, (R)—N-(3-(N-(2-amino-2-methylpropanoyl)-S-methylsulfonimidoyl)phenyl)-5-chloro-2-((6-fluoro-2-methylpyridin-3-yl)oxy)-4-(trifluoromethyl)benzamide]	< 5 nM	< 5 nM	–	–	–
Cc1nc(F)ccc1Oc1nnc(-c2ccc3c(c2)OCCO3)c(C)c1C(=O)Nc1cccc([S@](C)(=N)=O)c1 [Example 7C, (R)-6-(2,3-dihydrobenzo[b][1,4]dioxin-6-yl)-3-((6-fluoro-2-methylpyridin-3-yl)oxy)-5-methyl-N-(3-(S-methylsulfonimidoyl)phenyl)pyridazine-4-carboxamide]	–	–	–	–	IC50 [3]: < 5 nM; IC50 [4]: < 5 nM
Cc1nc(F)ccc1Oc1ncc(C(F)(F)F)c(C)c1C(=O)Nc1cccc([S@@](C)(=O)=NC(=O)[C@@H]2CCCO2)c1 [Example 7D, 2-((6-fluoro-2-methylpyridin-3-yl)oxy)-4-methyl-N-(3-((R)—S-methyl-N—((S)-tetrahydrofuran-2-carbonyl)sulfonimidoyl)phenyl)-5-(trifluoromethyl)nicotinamide]	–	–	< 5 nM	< 5 nM	–
Cc1nc(F)ccc1Oc1cc(C(F)(F)F)ccc1C(=O)Nc1cccc([S@@](C)(=O)=NC(=O)[C@@H]2CCCN2)c1 [Example 8B, (S)—N—((R)-(3-(2-((6-fluoro-2-methylpyridin-3-yl)oxy)-4-(trifluoromethyl)benzamido)phenyl)(methyl)(oxo)-λ^6-sulfaneylidene)pyrrolidine-2-carboxamide formate]	–	–	–	–	IC50 (P1 measurement, resting state block, holding potential −120 mV, second set of compounds, read-out: P1 (IC50, resting state block)): < 5 nM; IC50 (P2 measurement, inactivated state block, inactivation step −35 mV 10 sec, second set of compounds, read-out: P2 (IC50, inactivated state block)): < 5 nM
Cc1nc(F)ccc1Oc1ncc(C(F)(F)F)c(C)c1C(=O)Nc1cccc(S(N)(=O)=O)c1 [Example 8C, 2-((6-fluoro-2-methylpyridin-3-yl)oxy)-4-methyl-N-(3-sulfamoylphenyl)-5-(trifluoromethyl)nicotinamide]	–	–	–	–	IC50 [3]: < 5 nM; IC50 [4]: < 5 nM
COCC(=O)N=[S@](C)(=O)c1cccc(NC(=O)c2c(Oc3ccc(F)nc3C)ncc(C(F)(F)F)c2C)c1 [Example 8D, (R)-2-((6-fluoro-2-methylpyridin-3-yl)oxy)-N-(3-(N-(2-methoxyacetyl)-S-methylsulfonimidoyl)phenyl)-4-methyl-5-(trifluoromethyl)nicotinamide]	–	–	< 5 nM	< 5 nM	–
Cc1nc(F)ccc1Oc1cc(C2CC2)c(C(F)(F)F)c(C)c1C(=O)Nc1cccc([S@](C)(=N)=O)c1 [Example 9A, (R)-4-cyclopropyl-6-((6-fluoro-2-methylpyridin-3-yl)oxy)-2-methyl-N-(3-(S-methylsulfonimidoyl)phenyl)-3-(trifluoromethyl)benzamide]	–	–	–	–	IC50 (P1 measurement, resting state block, holding potential −120 mV, first set of compounds, read-out: P1 (IC50, resting state block)): < 5 nM; IC50 (P2 measurement, inactivated state block, inactivation step −35 mV 10 sec, first set of compounds, read-out: P2 (IC50, inactivated state block)): < 5 nM
Cc1nc(F)ccc1Oc1nnc(C(F)(F)F)c(C)c1C(=O)Nc1cccc([S@](C)(=N)=O)c1 [Example 9C, (R)-3-((6-fluoro-2-methylpyridin-3-yl)oxy)-5-methyl-N-(3-(S-methylsulfonimidoyl)phenyl)-6-(trifluoromethyl)pyridazine-4-carboxamide]	–	–	–	–	IC50 [3]: 50 to 100 nM; IC50 [4]: 50 to 100 nM
Cc1nc(F)ccc1Oc1cc(C(F)(F)F)c(Cl)c(C)c1C(=O)Nc1cccc([S@](C)(=N)=O)c1 [Example 10A, (R)-3-chloro-6-((6-fluoro-2-methylpyridin-3-yl)oxy)-2-methyl-N-(3-(S-methylsulfonimidoyl)phenyl)-4-(trifluoromethyl)benzamide]	–	–	–	–	IC50 [7]: < 5 nM; IC50 [8]: < 5 nM

Continued, in another order:

IC50 [1]	IC50 [2]	IC50 [5]	IC50 [6]	Structure (SMILES)	further results
< 5 nM	< 5 nM	–	–	Cc1nc(F)ccc1Oc1cc(C(F)(F)F)ccc1C(=O)Nc1cccc([S@@](C)(=O)=NC(=O)[C@@H](C)N)c1 [Example 9B, N-(3-((R)—N-(D-alanyl)-S-methylsulfonimidoyl)phenyl)-2-((6-fluoro-2-methylpyridin-3-yl)oxy)-4-(trifluoromethyl)benzamide]	–
–	–	< 5 nM	< 5 nM	Cc1nc(F)ccc1Oc1ncc(C(F)(F)F)c(C)c1C(=O)Nc1cccc([S@@](C)(=O)=NC(=O)[C@@H](C)N)c1 [Example 9D, N-(3-((R)—N-(D-alanyl)-S-methylsulfonimidoyl)phenyl)-2-((6-fluoro-2-methylpyridin-3-yl)oxy)-4-methyl-5-(trifluoromethyl)nicotinamide formate]	–
5 to 50 nM	5 to 50 nM	–	–	CNCC(=O)N=[S@](C)(=O)c1cccc(NC(=O)c2ccc(C(F)(F)F)cc2Oc2ccc(F)nc2C)c1 [Example 10B, (R)-2-((6-fluoro-2-methylpyridin-3-yl)oxy)-N-(3-(S-methyl-N-(methylglycyl)sulfonimidoyl)phenyl)-4-(trifluoromethyl)benzamide]	–
–	–	< 5 nM	< 5 nM	Cc1nc(F)ccc1Oc1ncc(C(F)(F)F)c(C)c1C(=O)Nc1cccc([S@@](C)(=O)=NC(=O)[C@@H]2CCOC2)c1 [Example 10D, 2-((6-fluoro-2-methylpyridin-3-yl)oxy)-4-methyl-N-(3-((R)—S-methyl-N—((R)-tetrahydrofuran-3-carbonyl)sulfonimidoyl)phenyl)-5-(trifluoromethyl)nicotinamide]	–
5 to 50 nM	5 to 50 nM	–	–	Cc1nc(F)ccc1Oc1cc(C(F)(F)F)ccc1C(=O)Nc1cccc([S@@](C)(=O)=NC(=O)CO)c1 [Example 11B, (R)-2-((6-fluoro-2-methylpyridin-3-yl)oxy)-N-(3-(N-(2-hydroxyacetyl)-S-methylsulfonimidoyl)phenyl)-4-(trifluoromethyl)benzamide]	–
–	–	< 5 nM	< 5 nM	Cc1nc(F)ccc1Oc1ncc(C(F)(F)F)c(C)c1C(=O)Nc1cccc([S@@](C)(=O)=NC(=O)C(N)C(F)(F)F)c1 (stereo partly drawn) [Example 11D, N-(3-((R)—N-(2-amino-3,3,3-trifluoropropanoyl)-S-methylsulfonimidoyl)phenyl)-2-((6-fluoro-2-methylpyridin-3-yl)oxy)-4-methyl-5-(trifluoromethyl)nicotinamide]	–
5 to 50 nM	5 to 50 nM	–	–	Cc1nc(F)ccc1Oc1cc(C(F)(F)F)ccc1C(=O)Nc1cccc([S@@](C)(=O)=NC(=O)[C@H](C)O)c1 [Example 12B, 2-((6-fluoro-2-methylpyridin-3-yl)oxy)-N-(3-((R)—N—((S)-2-hydroxypropanoyl)-S-methylsulfonimidoyl)phenyl)-4-(trifluoromethyl)benzamide]	–
